Tests used:
SMARCA2 = target: T1, SMARCA2 (Homo sapiens, UniProt P51531); assay: SMARCA2 HiBiT degradation assay in HeLa cells; assay type: cell-based; settings: 18 hours, highest concentration 10 μM
T1 construct: SMARCA2-HiBiT knock-in Hela monoclonal cell (CS302366); host or cells: HeLa monoclonal cells with heterozygous HiBiT knock-in at the endogenous SMARCA2 locus
Protocol: (§1) SMARCA2 HiBiT and SMARCA4 HiBiT Degradation Assay
HiBiT peptide knock-in of SMARCA2 in LgBiT expressing HEK293T cells was performed by CRISPR-mediated tagging system as described Promega. The homozygous HiBiT knock-in on c-terminus SMARCA2 was confirmed by sanger sequence. SMARCA2-HiBiT knock-in Hela monoclonal cell (CS302366) and SMARCA4-HiBiT knock-in Hela monoclonal cell (CS3023226) were purchased from Promega. The heterozygous HiBiT-knock-in was confirmed by sanger sequence in both SMARCA2-HiBiT and SMARCA4-HiBiT monoclonal cells.
(§2) SMARCA2 HiBiT and SMARCA4 HiBiT Degradation Assay in HeLa Cells
Dispense 10 ul aliquot of prepared Hela-SMARCA2-HiBiT or Hela-SMARCA4-HiBiT cells (1:1 ratio of cells:Trypan Blue (#1450013, Bio-Rad)) onto cell counting slide (#145-0011, Bio-Rad) and obtain cell density and cell viability using cell counter (TC20, Bio-Rad). Remove appropriate volume of resuspended cells from culture flask to accommodate 2500 cells/well @ 20 μL/well. Transfer Hela-HiBiT cells to 50 mL conical (#430290, Corning). Spin down at 1000 rpm for 5 min using tabletop centrifuge (SPINCHRON 15, Beckman). Discard supernatant and resuspend cell pellet in modified EMEM (#30-2003, ATCC) cell culture media containing 10% FBS (F2422-500ML, Sigma), and 1× Penicillin/Streptomycin ([…]) (30-002-CI, Corning) to a cell density of 125,000 cells/mL. Dispense 20 μLof resuspended Hela-HiBit cells per well in 384-well TC treated plate (#12-565-343, Thermo Scientific) using standard cassette (#50950372, Thermo Scientific) on Multidrop Combi (#5840310, Thermo Scientific) inside laminar flow cabinet.
Compounds were dissolved in DMSO to make 10 mM stock and 3-fold series dilutions were further conducted keeping the highest concentration 10 μM. Dispense test compounds onto plates using digital liquid dispenser (D300E, Tecan). Incubate plates in humidified tissue culture incubator @37° C. for 18 hours. Add 20 μL of prepared Nano-Glo® HiBiT Lytic detection buffer (N3050, Promega) to each well of 384-well plate using small tube cassette (#24073295, Thermo Scientific) on Multidrop Combi, incubate @ RT for 30-60 min. Read plates on microplate reader (Envision 2105, PerkinElmer) using 384 well Ultra-Sensitive luminescence mode. Raw data files and compound information reports are swept into centralized data lake and deconvoluted using automated scripts designed by TetraScience, Inc. Data analysis, curve-fitting and reporting done in Dotmatics Informatics Suite using Screening Ultra module.

SMARCA4 = target: T2, SMARCA4 (Homo sapiens, UniProt P51532); assay: SMARCA4 HiBiT degradation assay in HeLa cells; assay type: cell-based; settings: 18 hours, highest concentration 10 μM
T2 construct: SMARCA4-HiBiT knock-in Hela monoclonal cell (CS3023226); host or cells: HeLa monoclonal cells with heterozygous HiBiT knock-in at the endogenous SMARCA4 locus
T2 sequence (P51532 whole entry): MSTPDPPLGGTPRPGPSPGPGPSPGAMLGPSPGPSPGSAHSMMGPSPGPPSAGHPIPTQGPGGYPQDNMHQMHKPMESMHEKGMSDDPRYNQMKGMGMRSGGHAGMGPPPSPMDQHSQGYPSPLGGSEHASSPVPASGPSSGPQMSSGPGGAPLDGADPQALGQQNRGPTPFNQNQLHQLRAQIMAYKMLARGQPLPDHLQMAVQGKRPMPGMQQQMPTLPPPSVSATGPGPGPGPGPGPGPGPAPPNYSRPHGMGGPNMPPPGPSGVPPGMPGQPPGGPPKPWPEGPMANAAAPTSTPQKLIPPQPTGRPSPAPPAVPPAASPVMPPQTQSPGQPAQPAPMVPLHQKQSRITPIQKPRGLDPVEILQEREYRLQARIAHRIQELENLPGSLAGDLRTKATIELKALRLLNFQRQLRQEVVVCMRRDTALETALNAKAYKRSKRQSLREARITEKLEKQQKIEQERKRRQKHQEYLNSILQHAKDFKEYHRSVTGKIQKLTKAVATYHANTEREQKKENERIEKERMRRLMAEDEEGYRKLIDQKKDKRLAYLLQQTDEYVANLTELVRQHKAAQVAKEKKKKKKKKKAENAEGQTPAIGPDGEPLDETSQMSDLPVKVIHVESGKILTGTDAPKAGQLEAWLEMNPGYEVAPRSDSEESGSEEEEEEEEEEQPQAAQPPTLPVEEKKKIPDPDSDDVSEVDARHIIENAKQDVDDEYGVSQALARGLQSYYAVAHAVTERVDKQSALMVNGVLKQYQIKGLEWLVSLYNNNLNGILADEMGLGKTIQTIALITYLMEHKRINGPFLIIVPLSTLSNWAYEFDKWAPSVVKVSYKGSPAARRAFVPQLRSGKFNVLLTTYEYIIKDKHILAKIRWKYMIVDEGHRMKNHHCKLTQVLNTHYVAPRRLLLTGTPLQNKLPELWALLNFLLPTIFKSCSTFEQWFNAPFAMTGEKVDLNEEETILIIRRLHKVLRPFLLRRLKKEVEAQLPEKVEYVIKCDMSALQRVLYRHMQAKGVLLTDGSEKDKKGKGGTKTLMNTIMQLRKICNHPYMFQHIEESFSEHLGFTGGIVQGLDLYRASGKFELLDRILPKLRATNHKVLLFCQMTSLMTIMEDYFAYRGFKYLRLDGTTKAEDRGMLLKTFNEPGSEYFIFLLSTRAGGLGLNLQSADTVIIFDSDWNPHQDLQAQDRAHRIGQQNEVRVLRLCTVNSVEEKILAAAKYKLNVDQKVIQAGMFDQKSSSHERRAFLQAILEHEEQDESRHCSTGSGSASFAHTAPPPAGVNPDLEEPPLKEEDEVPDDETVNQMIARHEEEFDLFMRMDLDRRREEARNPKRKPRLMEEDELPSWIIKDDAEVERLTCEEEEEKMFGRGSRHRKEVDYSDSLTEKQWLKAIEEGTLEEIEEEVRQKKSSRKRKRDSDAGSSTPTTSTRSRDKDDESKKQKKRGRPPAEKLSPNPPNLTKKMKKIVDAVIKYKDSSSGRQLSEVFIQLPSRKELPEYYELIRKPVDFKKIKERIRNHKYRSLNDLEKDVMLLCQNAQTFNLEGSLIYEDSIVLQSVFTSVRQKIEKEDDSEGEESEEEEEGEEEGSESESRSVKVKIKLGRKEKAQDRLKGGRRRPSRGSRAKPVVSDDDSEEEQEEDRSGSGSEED
Protocol: as §1
HiBiT peptide knock-in of SMARCA2 in LgBiT expressing HEK293T cells was performed by CRISPR-mediated tagging system as described Promega. […] SMARCA2-HiBiT knock-in Hela monoclonal cell (CS302366) and SMARCA4-HiBiT knock-in Hela monoclonal cell (CS3023226) were purchased from Promega.
as §2
Remove appropriate volume of resuspended cells from culture flask to accommodate 2500 cells/well @ 20 μL/well. […] Spin down at 1000 rpm for 5 min using tabletop centrifuge (SPINCHRON 15, Beckman).
Dispense test compounds onto plates using digital liquid dispenser (D300E, Tecan). Incubate plates in humidified tissue culture incubator @37° C. for 18 hours. […] Raw data files and compound information reports are swept into centralized data lake and deconvoluted using automated scripts designed by TetraScience, Inc. Data analysis, curve-fitting and reporting done in Dotmatics Informatics Suite using Screening Ultra module.

T1 sequence (P51531 whole entry): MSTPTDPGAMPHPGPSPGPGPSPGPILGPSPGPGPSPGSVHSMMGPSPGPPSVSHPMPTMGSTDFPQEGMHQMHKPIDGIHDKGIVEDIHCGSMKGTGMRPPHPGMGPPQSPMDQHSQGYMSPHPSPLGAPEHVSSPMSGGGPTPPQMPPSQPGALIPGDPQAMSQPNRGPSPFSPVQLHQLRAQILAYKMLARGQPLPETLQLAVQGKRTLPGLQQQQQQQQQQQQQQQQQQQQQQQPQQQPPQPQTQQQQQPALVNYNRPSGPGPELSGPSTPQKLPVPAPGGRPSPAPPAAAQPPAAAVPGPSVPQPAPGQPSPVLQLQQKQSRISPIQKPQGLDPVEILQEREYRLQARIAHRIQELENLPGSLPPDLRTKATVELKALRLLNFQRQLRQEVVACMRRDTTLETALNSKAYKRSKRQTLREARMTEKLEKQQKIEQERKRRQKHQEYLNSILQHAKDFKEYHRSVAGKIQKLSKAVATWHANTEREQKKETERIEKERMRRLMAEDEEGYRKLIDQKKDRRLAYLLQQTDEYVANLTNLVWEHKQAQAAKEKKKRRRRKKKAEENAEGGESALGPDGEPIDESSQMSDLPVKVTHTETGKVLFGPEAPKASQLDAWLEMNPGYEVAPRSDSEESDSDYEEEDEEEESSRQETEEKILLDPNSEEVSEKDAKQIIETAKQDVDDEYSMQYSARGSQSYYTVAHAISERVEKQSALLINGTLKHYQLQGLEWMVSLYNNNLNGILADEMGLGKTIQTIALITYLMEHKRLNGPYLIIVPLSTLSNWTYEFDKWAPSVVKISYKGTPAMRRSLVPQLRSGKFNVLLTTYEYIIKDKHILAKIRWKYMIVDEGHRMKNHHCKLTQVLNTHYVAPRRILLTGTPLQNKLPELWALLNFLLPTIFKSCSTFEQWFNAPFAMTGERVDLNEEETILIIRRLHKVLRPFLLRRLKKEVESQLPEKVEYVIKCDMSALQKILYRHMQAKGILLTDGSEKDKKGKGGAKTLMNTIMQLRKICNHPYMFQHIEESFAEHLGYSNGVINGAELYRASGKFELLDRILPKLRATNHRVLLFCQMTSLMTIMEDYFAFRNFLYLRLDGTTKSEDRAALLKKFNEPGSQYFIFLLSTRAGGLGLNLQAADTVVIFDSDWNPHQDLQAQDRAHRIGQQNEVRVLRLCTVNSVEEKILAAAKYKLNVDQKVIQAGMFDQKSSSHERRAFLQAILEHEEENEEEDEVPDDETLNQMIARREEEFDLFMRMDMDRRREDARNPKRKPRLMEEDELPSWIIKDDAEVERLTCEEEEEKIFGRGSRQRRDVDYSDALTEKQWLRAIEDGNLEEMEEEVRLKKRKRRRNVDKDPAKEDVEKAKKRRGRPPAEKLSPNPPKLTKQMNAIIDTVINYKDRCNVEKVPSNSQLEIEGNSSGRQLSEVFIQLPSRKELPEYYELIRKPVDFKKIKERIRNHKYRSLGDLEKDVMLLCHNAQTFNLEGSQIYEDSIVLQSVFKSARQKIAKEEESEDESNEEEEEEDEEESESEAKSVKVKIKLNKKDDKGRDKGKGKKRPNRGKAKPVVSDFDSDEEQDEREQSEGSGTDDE

Structure (SMILES)	DC50 (SMARCA2)	Dmax (SMARCA2)	DC50 (SMARCA4)	Dmax (SMARCA4)
O=C1CC[C@H](N2Cc3ccc(N4CCN(Cc5ccc(O[C@@H]6C[C@@H]7CNc8nnc(-c9cccc(Cl)c9O)cc8N7C6)cc5)CC4)cc3C2=O)C(=O)N1 [Example 25, (S)-3-(6-(4-(4-(((6aR,8R)-2-(3-chloro-2-hydroxyphenyl)-5,6,6a,7,8,9-hexahydropyrrolo[1′,2′:4,5]pyrazino[2,3-c]pyridazin-8-yl)oxy)benzyl)piperazin-1-yl)-1-oxoisoindolin-2-yl)piperidine-2,6-dione]	< 0.1 µM	> 75%	< 0.1 µM	> 75%
O=C1CCC(N2Cc3ccc(N4CCN(Cc5cnc(S[C@@H]6C[C@@H]7CNc8nnc(-c9cc(F)cc(F)c9O)cc8N7C6)nc5)CC4)cc3C2=O)C(=O)N1 (stereo partly drawn) [Example 26, 3-(6-(4-((2-(((6aR,8R)-2-(3,5-difluoro-2-hydroxyphenyl)-5,6,6a,7,8,9-hexa-hydropyrrolo[1′,2′:4,5]pyrazino[2,3-c]pyridazin-8-yl)thio)pyrimidin-5-yl)methyl)piperazin-1-yl)-1-oxoisoindolin-2-yl)piperidine-2,6-dione]	< 0.1 µM	> 75%	< 0.1 µM	> 75%
Cc1cc(O[C@@H]2C[C@@H]3CNc4nnc(-c5cc(F)cc(F)c5O)cc4N3C2)ncc1CN1CCN(c2ccc3c(c2)C(=O)N(C2CCC(=O)NC2=O)C3)CC1 (stereo partly drawn) [Example 27, 3-(6-(4-((6-(((6aR,8R)-2-(3,5-difluoro-2-hydroxyphenyl)-5,6,6a,7,8,9-hexahydropyrrolo[1′,2′:4,5]pyrazino[2,3-c]pyridazin-8-yl)oxy)-4-methylpyridin-3-yl)methyl)piperazin-1-yl)-1-oxoisoindolin-2-yl)piperidine-2,6-dione]	< 0.1 µM	> 75%	< 0.1 µM	50 to 75%
Cc1cc(O[C@@H]2C[C@@H]3CNc4nnc(-c5cc(F)cc(F)c5O)cc4N3C2)ncc1CN1CCN(c2ccc3c(c2)C(=O)N([C@H]2CCC(=O)NC2=O)C3)CC1 [Example 28, (S)-3-(6-(4-((6-(((6aR,8R)-2-(3,5-difluoro-2-hydroxyphenyl)-5,6,6a,7,8,9-hexahydropyrrolo[1′,2′:4,5]pyrazino[2,3-c]pyridazin-8-yl)oxy)-4-methylpyridin-3-yl)methyl)piperazin-1-yl)-1-oxoisoindolin-2-yl)piperidine-2,6-dione]	< 0.1 µM	> 75%	< 0.1 µM	50 to 75%
Cc1cc(O[C@@H]2C[C@@H]3CNc4nnc(-c5cc(F)cc(F)c5O)cc4N3C2)ncc1CN1CCC(c2ccc3c(c2)C(=O)N([C@H]2CCC(=O)NC2=O)C3)CC1 [Example 29, (S)-3-(6-(1-((6-(((6aR,8R)-2-(3,5-difluoro-2-hydroxyphenyl)-5,6,6a,7,8,9-hexahydropyrrolo[1′,2′:4,5]pyrazino[2,3-c]pyridazin-8-yl)oxy)-4-methylpyridin-3-yl)methyl)piperidin-4-yl)-1-oxoisoindolin-2-yl)piperidine-2,6-dione]	< 0.1 µM	> 75%	< 0.1 µM	50 to 75%
Cc1nc(O[C@@H]2C[C@@H]3CNc4nnc(-c5cc(F)cc(F)c5O)cc4N3C2)ccc1CN1CCN(c2ccc3c(c2)C(=O)N([C@H]2CCC(=O)NC2=O)C3)CC1 [Example 30, (S)-3-(6-(4-((6-(((6aR,8R)-2-(3,5-difluoro-2-hydroxyphenyl)-5,6,6a,7,8,9-hexahydropyrrolo[1′,2′:4,5]pyrazino[2,3-c]pyridazin-8-yl)oxy)-2-methylpyridin-3-yl)methyl)piperazin-1-yl)-1-oxoisoindolin-2-yl)piperidine-2,6-dione]	< 0.1 µM	> 75%	< 0.1 µM	> 75%
Cc1cc(CN2CCN(c3ccc4c(c3)C(=O)N(C3CCC(=O)NC3=O)C4)CC2)cnc1O[C@@H]1C[C@@H]2CNc3nnc(-c4cc(F)cc(F)c4O)cc3N2C1 (stereo partly drawn) [Example 31, 3-(6-(4-((6-(((6aR,8R)-2-(3,5-difluoro-2-hydroxyphenyl)-5,6,6a,7,8,9-hexahydropyrrolo[1′,2′:4,5]pyrazino[2,3-c]pyridazin-8-yl)oxy)-5-methylpyridin-3-yl)methyl)piperazin-1-yl)-1-oxoisoindolin-2-yl)piperidine-2,6-dione]	< 0.1 µM	> 75%	< 0.1 µM	> 75%
O=C1CCC(N2Cc3ccc(N4CCN(Cc5ccc(S[C@@H]6C[C@@H]7CNc8nnc(-c9cc(F)cc(F)c9O)cc8N7C6)cc5)CC4)cc3C2=O)C(=O)N1 (stereo partly shown) [Example 32]	< 0.1 µM	> 75%	< 0.1 µM	50 to 75%
O=C1CCC(N2Cc3ccc(N4CCN(Cc5ccc(O[C@@H]6C[C@@H]7CNc8nnc(-c9cc(F)cc(F)c9O)cc8N7C6)nc5)CC4)cc3C2=O)C(=O)N1 (stereo partly drawn) [Example 33, 3-(6-(4-((6-(((6aR,8R)-2-(3,5-difluoro-2-hydroxyphenyl)-5,6,6a,7,8,9-hexahydropyrrolo[1′,2′:4,5]pyrazino[2,3-c]pyridazin-8-yl)oxy)pyridin-3-yl)methyl)piperazin-1-yl)-1-oxoisoindolin-2-yl)piperidine-2,6-dione]	< 0.1 µM	> 75%	< 0.1 µM	> 75%

Continued, values first:

DC50 (SMARCA2)	Dmax (SMARCA2)	DC50 (SMARCA4)	Dmax (SMARCA4)	Structure (SMILES)
< 0.1 µM	50 to 75%	> 1 µM	< 50%	C[C@@H]1CN(CC2CCN(c3ccc4c(c3)C(=O)N(C3CCC(=O)NC3=O)C4)CC2)C[C@H](C)N1C(=O)[C@@H]1C[C@@H]2CNc3nnc(-c4cccc(F)c4O)cc3N2C1 (stereo partly drawn) [Example 34, 3-(6-(4-(((3R,5S)-4-((6aR,8R)-2-(3-fluoro-2-hydroxyphenyl)-5,6,6a,7,8,9-hexahydropyrrolo[1′,2′:4,5]pyrazino[2,3-c]pyridazine-8-carbonyl)-3,5-dimethylpiperazin-1-yl)methyl)piperidin-1-yl)-1-oxoisoindolin-2-yl)piperidine-2,6-dione]
> 1 µM	50 to 75%	> 1 µM	< 50%	CN(c1ccc(CN2CCN(c3ccc4c(c3)C(=O)N(C3CCC(=O)NC3=O)C4)CC2)cn1)[C@@H]1C[C@@H]2CNc3nnc(-c4cccc(F)c4O)cc3N2C1 (stereo partly drawn) [Example 35, 3-(6-(4-((6-(((6aR,8R)-2-(3-fluoro-2-hydroxyphenyl)-5,6,6a,7,8,9-hexahydro-pyrrolo[1′,2′:4,5]pyrazino[2,3-c]pyridazin-8-yl)(methyl)amino)pyridin-3-yl)methyl)piperazin-1-yl)-1-oxoisoindolin-2-yl)piperidine-2,6-dione]
< 0.1 µM	> 75%	< 0.1 µM	> 75%	Cc1cc(O[C@@H]2C[C@H]3CNc4nnc(-c5cccc(F)c5O)cc4N3C2)ccc1CN1CCN(c2ccc3c(c2)C(=O)N(C2CCC(=O)NC2=O)C3)CC1 (stereo partly drawn) [Example 36, 3-(6-(4-(4-(((6aS,8R)-2-(3-fluoro-2-hydroxyphenyl)-5,6,6a,7,8,9-hexahydro-pyrrolo[1′,2′:4,5]pyrazino[2,3-c]pyridazin-8-yl)oxy)-2-methylbenzyl)piperazin-1-yl)-1-oxoisoindolin-2-yl)piperidine-2,6-dione]
< 0.1 µM	> 75%	< 0.1 µM	> 75%	Cc1cc(O[C@@H]2C[C@H]3CNc4nnc(-c5cccc(F)c5O)cc4N3C2)ccc1CN1CCC(c2ccc3c(c2)C(=O)N(C2CCC(=O)NC2=O)C3)CC1 (stereo partly drawn) [Example 37, 3-(6-(1-(4-(((6aS,8R)-2-(3-fluoro-2-hydroxyphenyl)-5,6,6a,7,8,9-hexahydropyrrolo[1′,2′:4,5]pyrazino[2,3-c]pyridazin-8-yl)oxy)-2-methylbenzyl)piperidin-4-yl)-1-oxoisoindolin-2-yl)piperidine-2,6-dione]
